In brackets after ≈: the same amount, converted by molar mass.
What was measured:
[1] = tested on: Talaromyces funiculosus; assay: Antifungal activity against Penicillium funiculosum ATCC 36839 after 72 hrs by serial dilution method; assay type: functional; details: ATCC 36839, 72 h
[2] = tested on: Escherichia coli; assay: Antibacterial activity against Escherichia coli ATCC 35210 after 24 hrs by microdilution method; assay type: functional; details: ATCC 35210, 24 h
[3] = tested on: Talaromyces funiculosus; assay: Fungicidal activity against Penicillium funiculosum ATCC 36839 incubated for 72 hrs followed by serial sub-cultivation for 72 hrs and measured after 72 hrs by serial dilution method; assay type: functional
[4] = tested on: Candida albicans; assay: Fungicidal activity against Candida albicans incubated for 72 hrs followed by serial sub-cultivation for 72 hrs and measured after 72 hrs by serial dilution method; assay type: functional
[5] = tested on: Penicillium ochrochloron; assay: Fungicidal activity against Penicillium ochrochloron ATCC 9112 incubated for 72 hrs followed by serial sub-cultivation for 72 hrs and measured after 72 hrs by serial dilution method; assay type: functional
[6] = tested on: Trichoderma viride; assay: Antifungal activity against Trichoderma viride IAM 5061 after 72 hrs by serial dilution method; assay type: functional; details: IAM 5061, 72 h
[7] = tested on: Bacillus cereus; assay: Antibacterial activity against Bacillus cereus after 24 hrs by microdilution method; assay type: functional
[8] = tested on: Escherichia coli; assay: Bactericidal activity against Escherichia coli ATCC 35210 incubated for 24 hrs followed by serial sub-cultivation and measured after 24 hrs by microdilution method; assay type: functional
[9] = tested on: Micrococcus flavus; assay: Antibacterial activity against Micrococcus flavus ATCC 10240 after 24 hrs by microdilution method; assay type: functional; details: ATCC 10240, 24 h
[10] = tested on: Bacillus cereus; assay: Bactericidal activity against Bacillus cereus incubated for 24 hrs followed by serial sub-cultivation and measured after 24 hrs by microdilution method; assay type: functional
[11] = tested on: Listeria monocytogenes; assay: Bactericidal activity against Listeria monocytogenes NCTC 7973 incubated for 24 hrs followed by serial sub-cultivation and measured after 24 hrs by microdilution method; assay type: functional
[12] = tested on: Aspergillus niger; assay: Antifungal activity against Aspergillus niger ATCC 6275 after 72 hrs by serial dilution method; assay type: functional; details: ATCC 6275, 72 h
[13] = tested on: Trichoderma viride; assay: Fungicidal activity against Trichoderma viride IAM 5061 incubated for 72 hrs followed by serial sub-cultivation for 72 hrs and measured after 72 hrs by serial dilution method; assay type: functional
[14] = tested on: Aspergillus niger; assay: Fungicidal activity against Aspergillus niger ATCC 6275 incubated for 72 hrs followed by serial sub-cultivation for 72 hrs and measured after 72 hrs by serial dilution method; assay type: functional
[15] = tested on: Staphylococcus aureus; assay: Bactericidal activity against Staphylococcus aureus ATCC 6538 incubated for 24 hrs followed by serial sub-cultivation and measured after 24 hrs by microdilution method; assay type: functional
[16] = tested on: Penicillium ochrochloron; assay: Antifungal activity against Penicillium ochrochloron ATCC 9112 after 72 hrs by serial dilution method; assay type: functional; details: ATCC 9112, 72 h
[17] = tested on: Aspergillus ochraceus; assay: Fungicidal activity against Aspergillus ochraceus ATCC 12066 incubated for 72 hrs followed by serial sub-cultivation for 72 hrs and measured after 72 hrs by serial dilution method; assay type: functional
[18] = tested on: Micrococcus flavus; assay: Bactericidal activity against Micrococcus flavus ATCC 10240 incubated for 24 hrs followed by serial sub-cultivation and measured after 24 hrs by microdilution method; assay type: functional
[19] = tested on: Candida albicans; assay: Antifungal activity against Candida albicans after 72 hrs by serial dilution method; assay type: functional
[20] = tested on: Aspergillus fumigatus; assay: Antifungal activity against Aspergillus fumigatus after 72 hrs by serial dilution method; assay type: functional
[21] = tested on: Salmonella typhimurium; assay: Antibacterial activity against Salmonella typhimurium ATCC 13311 after 24 hrs by microdilution method; assay type: functional, Salmonella enterica subsp. enterica serovar Typhimurium; details: Salmonella enterica, ATCC 13311, 24 h
[22] = tested on: Aspergillus fumigatus; assay: Fungicidal activity against Aspergillus fumigatus incubated for 72 hrs followed by serial sub-cultivation for 72 hrs and measured after 72 hrs by serial dilution method; assay type: functional
[23] = tested on: Aspergillus versicolor; assay: Fungicidal activity against Aspergillus versicolor ATCC 11730 incubated for 72 hrs followed by serial sub-cultivation for 72 hrs and measured after 72 hrs by serial dilution method; assay type: functional
[24] = tested on: Enterobacter cloacae; assay: Bactericidal activity against Enterobacter cloacae incubated for 24 hrs followed by serial sub-cultivation and measured after 24 hrs by microdilution method; assay type: functional
[25] = tested on: Aspergillus ochraceus; assay: Antifungal activity against Aspergillus ochraceus ATCC 12066 after 72 hrs by serial dilution method; assay type: functional; details: ATCC 12066, 72 h
[26] = tested on: Pseudomonas aeruginosa; assay: Bactericidal activity against Pseudomonas aeruginosa ATCC 27853 incubated for 24 hrs followed by serial sub-cultivation and measured after 24 hrs by microdilution method; assay type: functional
[27] = tested on: Staphylococcus aureus; assay: Antibacterial activity against Staphylococcus aureus ATCC 6538 after 24 hrs by microdilution method; assay type: functional; details: ATCC 6538, 24 h
[28] = tested on: Salmonella typhimurium; assay: Bactericidal activity against Salmonella typhimurium ATCC 13311 incubated for 24 hrs followed by serial sub-cultivation and measured after 24 hrs by microdilution method; assay type: functional, Salmonella enterica subsp. enterica serovar Typhimurium
[29] = tested on: Enterobacter cloacae; assay: Antibacterial activity against Enterobacter cloacae after 24 hrs by microdilution method; assay type: functional
[30] = tested on: Aspergillus versicolor; assay: Antifungal activity against Aspergillus versicolor ATCC 11730 after 72 hrs by serial dilution method; assay type: functional; details: ATCC 11730, 72 h
[31] = tested on: Listeria monocytogenes; assay: Antibacterial activity against Listeria monocytogenes NCTC 7973 after 24 hrs by microdilution method; assay type: functional; details: NCTC 7973, 24 h
[32] = tested on: Pseudomonas aeruginosa; assay: Antibacterial activity against Pseudomonas aeruginosa ATCC 27853 after 24 hrs by microdilution method; assay type: functional; details: ATCC 27853, 24 h

Row | SMILES | MIC [1] [µM] | MIC [2] [µM] | MFC99.5 [3] [×10⁻² umol/ml] | MFC99.5 [4] [×10⁻² umol/ml] | MFC99.5 [5] [×10⁻² umol/ml] | MIC [6] [µM] | MIC [7] [µM] | MBC99.5 [8] [×10⁻² umol/ml] | MIC [9] [µM] | MBC99.5 [10] [×10⁻² umol/ml] | MBC99.5 [11] [×10⁻² umol/ml] | MIC [12] [µM] | MFC99.5 [13] [×10⁻² umol/ml] | MFC99.5 [14] [×10⁻² umol/ml] | MBC99.5 [15] [×10⁻² umol/ml] | MIC [16] [µM] | MFC99.5 [17] [×10⁻² umol/ml] | MBC99.5 [18] [×10⁻² umol/ml] | MIC [19] [µM] | MIC [20] [µM] | also measured
1 | O=C(NN1C(=O)CSC1c1ccc(Cl)cc1)c1nsc2ccccc12 (stereo not drawn) | 102 (≈ 39.8 µg/mL) | 589 (≈ 230 µg/mL) | 20.5 | 20.5 | 20.5 | 25.6 (≈ 9.98 µg/mL) | 205 (≈ 79.9 µg/mL) | 76.8 | 384 (≈ 150 µg/mL) | 38.4 | 76.8 | 102 (≈ 39.8 µg/mL) | 5.12 | 20.5 | 38.4 | 102 (≈ 39.8 µg/mL) | 20.5 | 76.8 | 102 (≈ 39.8 µg/mL) | 205 (≈ 79.9 µg/mL) | MIC [21]: 768 µM (≈ 299 µg/mL); MFC99.5 [22]: 38.4 ×10⁻² umol/ml; MFC99.5 [23]: 20.5 ×10⁻² umol/ml; MBC99.5 [24]: 115.2 ×10⁻² umol/ml; MIC [25]: 102 µM (≈ 39.8 µg/mL); MBC99.5 [26]: 76.8 ×10⁻² umol/ml; MIC [27]: 205 µM (≈ 79.9 µg/mL); MBC99.5 [28]: 115.2 ×10⁻² umol/ml; MIC [29]: 789 µM (≈ 308 µg/mL); MIC [30]: 102 µM (≈ 39.8 µg/mL); MIC [31]: 589 µM (≈ 230 µg/mL); MIC [32]: 205 µM (≈ 79.9 µg/mL)
2 | O=C(NN1C(=O)CSC1c1c(F)cccc1Cl)c1nsc2ccccc12 (stereo not drawn) | 368 (≈ 150 µg/mL) | 270 (≈ 110 µg/mL) | 73.5 | 85.8 | 85.8 | 138 (≈ 56.3 µg/mL) | 196 (≈ 79.9 µg/mL) | 36.8 | 270 (≈ 110 µg/mL) | 36.8 | 36.8 | 368 (≈ 150 µg/mL) | 18.4 | 73.5 | 36.8 | 368 (≈ 150 µg/mL) | 73.5 | 36.8 | 735 (≈ 300 µg/mL) | 368 (≈ 150 µg/mL) | MIC [21]: 196 µM (≈ 79.9 µg/mL); MFC99.5 [22]: 73.5 ×10⁻² umol/ml; MFC99.5 [23]: 73.5 ×10⁻² umol/ml; MBC99.5 [24]: 73.5 ×10⁻² umol/ml; MIC [25]: 368 µM (≈ 150 µg/mL); MBC99.5 [26]: 36.8 ×10⁻² umol/ml; MIC [27]: 196 µM (≈ 79.9 µg/mL); MBC99.5 [28]: 36.8 ×10⁻² umol/ml; MIC [29]: 368 µM (≈ 150 µg/mL); MIC [30]: 184 µM (≈ 75 µg/mL); MIC [31]: 270 µM (≈ 110 µg/mL); MIC [32]: 196 µM (≈ 79.9 µg/mL)
3 | O=C(NN1C(=O)CSC1c1c(Cl)cccc1Cl)c1nsc2ccccc12 (stereo not drawn) | 395 (≈ 168 µg/mL) | 543 (≈ 230 µg/mL) | 79 | 79 | 79 | 132 (≈ 56 µg/mL) | 395 (≈ 168 µg/mL) | 79 | 543 (≈ 230 µg/mL) | 79 | 79 | 395 (≈ 168 µg/mL) | 18.9 | 79 | 39.5 | 395 (≈ 168 µg/mL) | 18.9 | 79 | 395 (≈ 168 µg/mL) | 395 (≈ 168 µg/mL) | MIC [21]: 395 µM (≈ 168 µg/mL); MFC99.5 [22]: 79 ×10⁻² umol/ml; MFC99.5 [23]: 70.8 ×10⁻² umol/ml; MBC99.5 [24]: 79 ×10⁻² umol/ml; MIC [25]: 94.5 µM (≈ 40.1 µg/mL); MBC99.5 [26]: 39.5 ×10⁻² umol/ml; MIC [27]: 189 µM (≈ 80.2 µg/mL); MBC99.5 [28]: 79 ×10⁻² umol/ml; MIC [29]: 543 µM (≈ 230 µg/mL); MIC [30]: 189 µM (≈ 80.2 µg/mL); MIC [31]: 395 µM (≈ 168 µg/mL); MIC [32]: 189 µM (≈ 80.2 µg/mL)
4 | O=C(Cc1nsc2ccccc12)NN1C(=O)CSC1c1cccc(Cl)c1 (stereo not drawn) | 100 (≈ 40.4 µg/mL) | 198 (≈ 80 µg/mL) | 19.8 | 19.8 | 10 | 50 (≈ 20.2 µg/mL) | 198 (≈ 80 µg/mL) | 37.2 | 198 (≈ 80 µg/mL) | 37.2 | 37.2 | 100 (≈ 40.4 µg/mL) | 10 | 19.2 | 37.2 | 74 (≈ 29.9 µg/mL) | 10 | 37.2 | 100 (≈ 40.4 µg/mL) | 100 (≈ 40.4 µg/mL) | MIC [21]: 100 µM (≈ 40.4 µg/mL); MFC99.5 [22]: 37.2 ×10⁻² umol/ml; MFC99.5 [23]: 19.2 ×10⁻² umol/ml; MBC99.5 [24]: 37.2 ×10⁻² umol/ml; MIC [25]: 74 µM (≈ 29.9 µg/mL); MBC99.5 [26]: 37.2 ×10⁻² umol/ml; MIC [27]: 100 µM (≈ 40.4 µg/mL); MBC99.5 [28]: 37.2 ×10⁻² umol/ml; MIC [29]: 198 µM (≈ 80 µg/mL); MIC [30]: 100 µM (≈ 40.4 µg/mL); MIC [31]: 198 µM (≈ 80 µg/mL); MIC [32]: 198 µM (≈ 80 µg/mL)

Reference: ChEMBL document CHEMBL4257449, “New N-(2-phenyl-4-oxo-1,3-thiazolidin-3-yl)-1,2-benzothiazole-3-carboxamides and acetamides as antimicrobial agents” (2017)
